Results taken from patent publication US20100267752A1, “3-HYDROQUINAZOLIN-4-ONE DERIVATIVES FOR USE AS STEAROYL CoA DESATURASE INHIBITORS” (Gilead Palo Alto, Inc., priority 2008, published 2010).

Target: T1, SCD (stearoyl-CoA desaturase) (Rattus norvegicus, UniProt P07308)
T1 construct: The rat liver microsomes were collected according to the procedure described in Ozols (1990) Methods Enzm, 182:225; from tissue; host or cells: liver microsomes of male Sprague Dawley rats, SCD induced by a carbohydrate-rich diet
T1 sequence (P07308 1-358): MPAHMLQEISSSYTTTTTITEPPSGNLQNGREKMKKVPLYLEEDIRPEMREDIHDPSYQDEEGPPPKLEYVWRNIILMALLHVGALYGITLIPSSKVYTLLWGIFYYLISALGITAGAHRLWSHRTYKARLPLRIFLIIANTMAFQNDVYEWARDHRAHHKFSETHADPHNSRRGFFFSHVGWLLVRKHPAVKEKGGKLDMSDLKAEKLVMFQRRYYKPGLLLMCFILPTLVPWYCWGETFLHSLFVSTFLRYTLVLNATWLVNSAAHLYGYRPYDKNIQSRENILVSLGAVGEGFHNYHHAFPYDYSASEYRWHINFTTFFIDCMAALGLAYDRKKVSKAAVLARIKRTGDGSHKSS
Assay: SCD assay with rat liver microsomes, [3H]stearoyl CoA (adapted from Talamo and Bloch)
Type: biochemical
Details: rat liver microsomes 0.2 mg/ml final, 30 min preincubation, 45 min reaction at room temperature
Source text: The identification of compounds of the invention as SCD inhibitors was readily accomplished using the SCD enzyme and microsomal assay procedure described in Talamo and Bloch (1969) Analytical Biochemistry 29:300-304.
The rat liver microsomes were collected according to the procedure described in Ozols (1990) Methods Enzm, 182:225.
Male Sprague Dawley Rats were placed on regimented fasting protocol for one week to stimulate SCD enzymatic activity. 48-hour periods were alternated between feeding and fasting to induce and down-regulate SCD activity with SCD activity being induced via carbohydrate rich diet prior to liver perfusion and collection.
The rats were anesthetized with Isoflurane inhalation anesthetic, the liver perfused with cold phosphate buffered saline (PBS), weighed, and chilled in cold homogenization buffer (250 mM sucrose, […] Tris, 1 mM EDTA, pH 7.6.
The livers were finely minced and placed in homogenization tube. 40 mL of homogenization buffer was added to the homogenization tube and the liver homogenized and centrifuged in a pre-chilled SLA-600 TC at 800G rotor for 10 min at 4° C.
Following centrifugation, the supernatant was collected and the pellet removed and discarded. The supernatant was centrifuge at 10,000 G for 35 minutes. Following centrifugation, the supernatant was collect and the pellet discarded. The supernatant was then centrifuged in a pre-chilled 45-Ti rotor at 130,000 G (41,000 RPM) for 90 minutes at 4° C.
The supernatant was then aspirated off and the collected microsomal pellet washed in 25 mL of Glycerol PBS (1×PBS 7.4, 20% Glycerol) and resuspended in 4-5 volumes of Glycerol PBS.
The protein concentration of the microsomal preparation was determined by BCA assay (Pierce) and the microsomes were aliquoted and stored at −80° C.
SCD was determined in the desaturase assay buffer. This assay buffer contained 0.1 M Tris buffer, pH 7.2, 2 mM NADH, 4.8 mM ATP, 0.5 mM CoA, 4.8 mM MgCl2, and 0.1% BSA.
The Procedure for the SCD Assay (Adapted from Talamo and Bloch (1969) Analytical Biochemistry 29:300-304)
1 μl of each compound of Formula I was added to an assay plate by a low volume (0.5-10 μL) multichannel pipette. A DMSO control was also prepared. The microsomes were quickly thawed and added to assay buffer so that a concentration of 0.4 mg/ml was achieved (0.2 mg/ml assay final). 50 μl of the microsome suspension in assay buffer was then added into each well in the compound assay plate, the plate was covered, and the microsomes preincubated with the compounds for 30 minutes on the orbital shaker, 50-75 rpm, at room temperature. […]

Row | IC50 | SMILES
1 | 0.75 µM | CC(=O)OCC(=O)Nc1ccc2nc(Cc3ccc(Cl)c(Cl)c3)[nH]c(=O)c2c1 [III., 2-(2-(3,4-dichlorobenzyl)-4-oxo-3,4-dihydroquinazolin-6-ylamino)-2-oxoethyl acetate]
2 | 1.2 µM | O=C(Nc1ccc2nc(Cc3ccc(Cl)c(Cl)c3)[nH]c(=O)c2c1)OCc1ccccc1 [II., benzyl 2-(3,4-dichlorobenzyl)-4-oxo-3,4-dihydroquinazolin-6-ylcarbamate]
3 | 2.5 µM | O=C(Nc1ccc2c(=O)[nH]c(Cc3ccc(Cl)c(Cl)c3)nc2c1)OCc1ccccc1 [I., benzyl 2-(3,4-dichlorobenzyl)-4-oxo-3,4-dihydroquinazolin-7-ylcarbamate]
4 | 0.93 µM | O=C(CO)Nc1ccc2nc(Cc3ccc(Cl)c(Cl)c3)[nH]c(=O)c2c1 [IV., N-(2-(3,4-dichlorobenzyl)-4-oxo-3,4-dihydroquinazolin-6-yl)-2-hydroxyacetamide]
